In patent US20250206730A1 (AUTOTELIC BIO INC., priority 2022, published 2025):

What follows are molecules tested on TGF-β signaling (assay: Assay for evaluating cellular inhibition of TGF-β signaling, 4T1 (SBE-luc2P) luciferase reporter). Settings: Mus musculus, 4T1, 4T1 (SBE-luc2P) transient pool, 0.2% FBS, 2 h pre-treatment, TGF-β1 2 ng/mL 24 h; read-out: IC50 4T1 Cell.
Format: cell-based
Method: [Example 2] Assay for Evaluating Cellular Inhibition of TGF-β Signaling
4T1 (SBE-luc2P) transient pool that have SBE-luc2P (hygro) expression plasmid or HEK293 (SBE reporter) stable cells (BPS bioscience) were seeded at 6×10^3 cells/well or 2.5×10^4 cells/well in 96-well plate, respectively. 4T1 (SBE-luc2P) transient pool were pre-treated with novel compound synthesized in Example 1 above in 0.2% FBS at approximately 60% confluence at 37° C. in 5% CO2. Also, HEK293 (SBE reporter) stable cells were pre-treated with each test compounds of formula in 0.5% FBS at approximately 80% confluence at 37° C. in 5% CO2. After 2 hours, cells were treated with TGF-β1 (2 ng/mL) for 24 h at 37° C. in 5% CO2. Cell lysates were prepared using Luciferase Assay (Promega) according to the manufacturer's instruction, and luminescence was measured by a plate reader, Biotek Synergy H1 (Vermont, USA).

SMILES | IC50
COc1ccc(Nc2cc(Oc3sc(N)nc3-c3ccccc3)ccn2)cn1 [A-31, 5-((2-((6-Methoxypyridin-3-yl)amino)pyridin-4-yl)oxy)-4-phenylthiazol-2-amine] | > 0.1 µM
Nc1nc(-c2ccccc2)c(Oc2ccnc(Nc3ccc(F)nc3)c2)s1 [A-7, 5-((2-((6-Fluoropyridin-3-yl)amino)pyridin-4-yl)oxy)-4-phenylthiazol-2-amine] | > 0.1 µM
Cc1nc(-c2ccccc2)c(Oc2ccnc(NCc3cccnc3)c2)s1 [A-81, 4-((2-Methyl-4-phenylthiazol-5-yl)oxy)-N-(pyridin-3-ylmethyl)pyridin-2-amine] | > 0.1 µM
Nc1nc(-c2ccccc2)c(Oc2ccnc(Nc3cn[nH]c3)c2)s1 [A-38, 5-((2-((1H-Pyrazol-4-yl)amino)pyridin-4-yl)oxy)-4-phenylthiazol-2-amine] | > 0.1 µM
CS(=O)(=O)n1cc(Nc2cc(Oc3sc(N)nc3-c3ccccc3)ccn2)cn1 [A-62, 5-((2-((1-(Methylsulfonyl)-1H-pyrazol-4-yl)amino)pyridin-4-yl)oxy)-4-phenylthiazol-2-amine] | > 0.1 µM
COC(=O)c1cccc(Nc2cc(Oc3sc(C(C)C)nc3-c3ccccc3)ccn2)n1 [A-216, Methyl 6-((4-((2-Isopropyl-4-phenylthiazol-5-yl)oxy)pyridin-2-yl)amino)picolinate] | > 0.1 µM
Cc1cccc(-c2nc(C)sc2Oc2ccnc(Nc3cccc(Cc4nnn[nH]4)c3)c2)n1 [A-305, N-(3-((1H-Tetrazol-5-yl)methyl)phenyl)-4-((2-methyl-4-(6-methylpyridin-2-yl)thiazol-5-yl)oxy)pyridin-2-amine] | > 0.1 µM
Cc1nc(-c2ccccc2)c(Oc2ccnc(Nc3cccnc3)c2)s1 [A-82, 4-((2-Methyl-4-phenylthiazol-5-yl)oxy)-N-(pyridin-3-yl)pyridin-2-amine] | > 0.1 µM
Nc1nc(-c2ccccc2)c(Oc2ccnc(NCc3ccccc3)c2)s1 [A-25, 5-((2-(Benzylamino)pyridin-4-yl)oxy)-4-phenylthiazol-2-amine] | > 0.1 µM
Cc1nc(-c2ccccc2)c(Oc2ccnc(Nc3ccc(F)nc3)c2)s1 [A-83, N-(6-Fluoropyridin-3-yl)-4-((2-methyl-4-phenylthiazol-5-yl)oxy)pyridin-2-amine] | > 0.1 µM
Nc1nc(-c2ccccc2)c(Oc2ccnc(NCc3cccc(F)c3)c2)s1 [A-21, 5-((2-((3-Fluorobenzyl)amino)pyridin-4-yl)oxy)-4-phenylthiazol-2-amine] | > 0.1 µM
Cc1nc(-c2ccccc2)c(Oc2ccnc(Nc3ccc(Cl)nc3)c2)s1 [A-84, N-(6-Chloropyridin-3-yl)-4-((2-methyl-4-phenylthiazol-5-yl)oxy)pyridin-2-amine] | > 0.1 µM
Cc1nc(-c2ccccc2)c(Oc2ccnc(Nc3ccnc(F)c3)c2)s1 [A-87, N-(2-Fluoropyridin-4-yl)-4-((2-methyl-4-phenylthiazol-5-yl)oxy)pyridin-2-amine] | > 0.1 µM
Nc1nc(-c2ccccc2)c(Oc2ccnc(Nc3ccnc(F)c3)c2)s1 [A-30, 5-((2-((2-Fluoropyridin-4-yl)amino)pyridin-4-yl)oxy)-4-phenylthiazol-2-amine] | > 0.1 µM
Cc1nc(-c2ccccc2)c(Oc2ccnc(Nc3ccnc(C(N)=O)c3)c2)s1 [A-102, 4-((4-((2-Methyl-4-phenylthiazol-5-yl)oxy)pyridin-2-yl)amino)picolinamide] | > 0.1 µM
Cc1nc(-c2ccccc2)c(Oc2ccnc(NCc3cccc(F)c3)c2)s1 [A-96, N-(3-Fluorobenzyl)-4-((2-methyl-4-phenylthiazol-5-yl)oxy)pyridin-2-amine] | > 0.1 µM
Cc1nc(-c2ccccc2)c(Oc2ccnc(Nc3cccc(C(=O)N(C)C)c3)c2)s1 [A-67, N,N-Dimethyl-3-((4-((2-methyl-4-phenylthiazol-5-yl)oxy)pyridin-2-yl)amino)benzamide] | < 0.1 µM
Cc1nc(-c2ccccc2)c(Oc2ccnc(Nc3cnn(S(=O)(=O)C4CC4)c3)c2)s1 [A-98, N-(1-(Cyclopropylsulfonyl)-1H-pyrazol-4-yl)-4-((2-methyl-4-phenylthiazol-5-yl)oxy)pyridin-2-amine] | > 0.1 µM
CNC(=O)c1cccc(Nc2cc(Oc3sc(N)nc3-c3ccccc3)ccn2)c1 [A-23, 3-((4-((2-Amino-4-phenylthiazol-5-yl)oxy)pyridin-2-yl)amino)-N-methylbenzamide] | < 0.1 µM
NC(=O)c1ccc(Nc2cc(Oc3sc(N)nc3-c3ccccc3)ccn2)cn1 [A-11, 5-((4-((2-Amino-4-phenylthiazol-5-yl)oxy)pyridin-2-yl)amino)picolinamide] | > 0.1 µM
Nc1nc(-c2ccccc2)c(Oc2ccnc(NCc3cccnc3)c2)s1 [A-28, 4-Phenyl-5-((2-((pyridin-3-ylmethyl)amino)pyridin-4-yl)oxy)thiazol-2-amine] | > 0.1 µM
Nc1nc(-c2ccccc2)c(Oc2ccnc(Nc3cccnc3)c2)s1 [A-6, 4-Phenyl-5-((2-(pyridin-3-ylamino)pyridin-4-yl)oxy)thiazol-2-amine] | > 0.1 µM

Continued, values first:

IC50 | SMILES
< 0.1 µM | Cc1nc(-c2ccccc2)c(Oc2ccnc(Nc3cccc(C(N)=O)n3)c2)s1 [A-101, 6-((4-((2-Methyl-4-phenylthiazol-5-yl)oxy)pyridin-2-yl)amino)picolinamide]
< 0.1 µM | Cc1nc(-c2ccccc2)c(Oc2ccnc(Nc3cccc(NS(=O)(=O)C4CC4)c3)c2)s1 [A-75, N-(3-((4-((2-Methyl-4-phenylthiazol-5-yl)oxy)pyridin-2-yl)amino)phenyl)cyclopropanesulfonamide]
< 0.1 µM | COc1cc(Nc2cc(Oc3sc(C)nc3-c3ccccc3)ccn2)ccc1N1CCN(C)CC1 [A-106, N-(3-Methoxy-4-(4-methylpiperazin-1-yl)phenyl)-4-((2-methyl-4-phenylthiazol-5-yl)oxy)pyridin-2-amine]
< 0.1 µM | Cc1nc(-c2ccccc2)c(Oc2ccnc(Nc3cccc(S(=O)(=O)N(C)C)c3)c2)s1 [A-74, N,N-Dimethyl-3-((4-((2-methyl-4-phenylthiazol-5-yl)oxy)pyridin-2-yl)amino)benzenesulfonamide]
< 0.1 µM | COc1cc(Nc2cc(Oc3sc(N)nc3-c3ccccc3)ccn2)ccn1 [A-24, 5-((2-((2-Methoxypyridin-4-yl)amino)pyridin-4-yl)oxy)-4-phenylthiazol-2-amine]
< 0.1 µM | Nc1nc(-c2ccccc2)c(Oc2ccnc(Nc3cccc(NS(=O)(=O)C4CC4)c3)c2)s1 [A-16, N-(3-((4-((2-Amino-4-phenylthiazol-5-yl)oxy)pyridin-2-yl)amino)phenyl)cyclopropanesulfonamide]
< 0.1 µM | CS(=O)(=O)c1cccc(Nc2cc(Oc3sc(N)nc3-c3ccccc3)ccn2)c1 [A-15, 5-((2-((3-(Methylsulfonyl)phenyl)amino)pyridin-4-yl)oxy)-4-phenylthiazol-2-amine]
< 0.1 µM | O=S(=O)(Nc1cccc(Nc2cc(Oc3sc(C4CC4)nc3-c3ccccc3)ccn2)c1)C(F)(F)F [A-123, N-(3-((4-((2-Cyclopropyl-4-phenylthiazol-5-yl)oxy)pyridin-2-yl)amino)phenyl)-1,1,1-trifluoromethanesulfonamide]
< 0.1 µM | COC(=O)c1cccc(Nc2cc(Oc3sc(N(C)C)nc3-c3ccccc3)ccn2)n1 [A-162, Methyl 6-((4-((2-(dimethylamino)-4-phenylthiazol-5-yl)oxy)pyridin-2-yl)amino)picolinate]
< 0.1 µM | Cc1nc(-c2ccccc2)c(Oc2ccnc(Nc3cccc(CS(C)(=O)=O)c3)c2)s1 [A-79, 4-((2-Methyl-4-phenylthiazol-5-yl)oxy)-N-(3-((methylsulfonyl)methyl)phenyl)pyridin-2-amine]
< 0.1 µM | Cc1nc(-c2ccccc2)c(Oc2ccnc(Nc3ccc(C(N)=O)cn3)c2)s1 [A-90, 6-((4-((2-Methyl-4-phenylthiazol-5-yl)oxy)pyridin-2-yl)amino)nicotinamide]
< 0.1 µM | Cc1nc(-c2ccccc2)c(Oc2ccnc(Nc3cnn(C)c3)c2)s1 [A-99, N-(1-Methyl-1H-pyrazol-4-yl)-4-((2-methyl-4-phenylthiazol-5-yl)oxy)pyridin-2-amine]
< 0.1 µM | CCS(=O)(=O)c1cccc(Nc2cc(Oc3sc(C)nc3-c3ccccc3)ccn2)c1 [A-77, N-(3-(Ethylsulfonyl)phenyl)-4-((2-methyl-4-phenylthiazol-5-yl)oxy)pyridin-2-amine]
< 0.1 µM | Cc1cccc(-c2nc(C)sc2Oc2ccnc(Nc3cccc(CCC#N)c3)c2)n1 [A-306, 3-(3-((4-((2-Methyl-4-(6-methylpyridin-2-yl)thiazol-5-yl)oxy)pyridin-2-yl)amino)phenyl)propanenitrile]
< 0.1 µM | CNS(=O)(=O)c1cccc(Nc2cc(Oc3sc(N)nc3-c3ccccc3)ccn2)c1 [A-12, 3-((4-((2-Amino-4-phenylthiazol-5-yl)oxy)pyridin-2-yl)amino)-N-methylbenzenesulfonamide]
< 0.1 µM | Nc1nc(-c2ccccc2)c(Oc2ccnc(Nc3cccc(NS(=O)(=O)C(F)(F)F)c3)c2)s1 [A-36, N-(3-((4-((2-Amino-4-phenylthiazol-5-yl)oxy)pyridin-2-yl)amino)phenyl)-1,1,1-trifluoromethanesulfonamide]
< 0.1 µM | CCS(=O)(=O)c1cccc(Nc2cc(Oc3sc(N)nc3-c3ccccc3)ccn2)c1 [A-34, 5-((2-((3-(Ethylsulfonyl)phenyl)amino)pyridin-4-yl)oxy)-4-phenylthiazol-2-amine]
< 0.1 µM | NC(=O)c1cccc(Nc2cc(Oc3sc(N)nc3-c3ccccc3)ccn2)n1 [A-33, 6-((4-((2-Amino-4-phenylthiazol-5-yl)oxy)pyridin-2-yl)amino)picolinamide]
